Results as given in patent publication US9169254B2, “Spiroimidazolone derivative” (Chugai Seiyaku Kabushiki Kaisha, priority 2009, dated 2015).

Target: T1, human PTH1 receptor (Homo sapiens, UniProt Q03431)
T1 sequence (Q03431 27-593): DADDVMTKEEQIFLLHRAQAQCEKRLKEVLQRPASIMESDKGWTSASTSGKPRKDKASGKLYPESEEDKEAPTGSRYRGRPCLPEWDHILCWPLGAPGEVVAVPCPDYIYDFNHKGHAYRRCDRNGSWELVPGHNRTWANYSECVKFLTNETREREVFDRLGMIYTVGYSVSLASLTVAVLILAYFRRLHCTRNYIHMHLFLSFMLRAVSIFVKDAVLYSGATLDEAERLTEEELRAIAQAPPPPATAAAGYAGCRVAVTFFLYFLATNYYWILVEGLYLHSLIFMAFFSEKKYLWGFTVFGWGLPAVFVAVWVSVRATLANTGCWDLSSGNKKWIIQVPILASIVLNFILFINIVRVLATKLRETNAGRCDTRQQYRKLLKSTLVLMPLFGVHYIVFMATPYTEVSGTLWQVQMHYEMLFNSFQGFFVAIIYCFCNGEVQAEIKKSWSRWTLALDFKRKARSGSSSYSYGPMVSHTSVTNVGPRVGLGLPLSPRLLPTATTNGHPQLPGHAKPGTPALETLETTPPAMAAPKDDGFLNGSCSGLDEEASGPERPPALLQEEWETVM
Test: In vitro cAMP signal activity in HKRK-B7 cells (LLC-PK1 cells overexpressing the human PTH1 receptor)
Type: cell-based

[1] = HKRK-B7 cells, compound at 1×10^−3 M, cAMP produced as percentage of that produced by hPTH(1-34) at 100 nM

| cAMP production activity (%) [1] [%] | Compound | cAMP production activity (%) (0.1 µM) |
| --- | --- | --- |
| 102 | [2H]C([2H])([2H])C([2H])([2H])C1=CC[C@H](C2=NC3(CCN([S@TB18](=O)(=O)/C=C/c4c(C)cc(N(C)C(N)=O)cc4C)CC3)C(=O)N2)CC1 [Compound 1129, 1-(4-{(E)-2-[2-(4-[1,1,2,2,2-^2H5]ethyl-cyclohex-3-enyl)-4-oxo-1,3,8-triaza-spiro[4.5]dec-1-ene-8-sulfonyl]-vinyl}-3,5-dimethyl-phenyl)-1-methyl-urea] | – |
| 96 | Cc1cc(N(C)C(N)=O)cc(C)c1/C=C/S(=O)(=O)N1CCC2(CC1)N=C(CCCCCCCCCCCC(=O)O)NC2=O [Compound 1131, 12-(8-{(E)-2-[2,6-Dimethyl-4-(1-methyl-ureido)-phenyl]-ethenesulfonyl}-4-oxo-1,3,8-triaza-spiro[4.5]dec-1-en-2-yl)-dodecanoic acid] | – |
| 80 | CCOC(=O)CCCCCCCCCCCC1=NC2(CCN(S(=O)(=O)/C=C/c3c(C)cc(N(C)C(N)=O)cc3C)CC2)C(=O)N1 [Compound 1132, 12-(8-{(E)-2-[2,6-dimethyl-4-(1-methyl-ureido)-phenyl]-ethenesulfonyl}-4-oxo-1,3,8-triaza-spiro[4.5]dec-1-en-2-yl)-dodecanoic acid ethyl ester] | – |
| 113 | Cc1cc(N(C)C(N)=O)cc(C)c1/C=C/S(=O)(=O)N1CCC2(CC1)N=C(CCCCCc1ccccc1)NC2=O.O=C(O)C(F)(F)F [Compound 1133, 1-(3,5-Dimethyl-4-{(E)-2-[4-oxo-2-(5-phenyl-pentyl)-1,3,8-triaza-spiro[4.5]dec-1-ene-8-sulfonyl]-vinyl}-phenyl)-1-methyl-urea trifluoroacetate] | – |
| 50 | Cc1cc(N(C)C(N)=O)cc(C)c1/C=C\S(=O)(=O)N1CCC2(CC1)N=C(CCCCCc1ccccc1)NC2=O.O=C(O)C(F)(F)F [Compound 1134, 1-(3,5-dimethyl-4-{(Z)-2-[4-oxo-2-(5-phenyl-pentyl)-1,3,8-triaza-spiro[4.5]dec-1-ene-8-sulfonyl]-vinyl}-phenyl)-1-methyl-urea trifluoroacetate] | – |
| 84 | Cc1cc(N(C)C(N)=O)cc(C)c1CCS(=O)(=O)N1CCC2(CC1)N=C(c1cccc(OCCCC(F)(F)C(F)(F)F)c1)NC2=O [Compound 1135, 1-[3,5-Dimethyl-4-(2-{4-oxo-2-[3-(4,4,5,5,5-pentafluoro-pentyloxy)-phenyl]-1,3,8-triaza-spiro[4.5]dec-1-ene-8-sulfonyl}-ethyl)-phenyl]-1-methyl-urea] | – |
| 112 | CCCc1cccc(-c2cccc(C3=NC4(CCN(S(=O)(=O)CCc5c(C)cc(N(C)C(N)=O)cc5C)CC4)C(=O)N3)c2)c1 [Compound 1136, 1-(3,5-Dimethyl-4-{2-[4-oxo-2-(3′-propyl-biphenyl-3-yl)-1,3,8-triaza-spiro[4.5]dec-1-ene-8-sulfonyl]-ethyl}-phenyl)-1-methyl-urea] | – |
| – | Cc1cc(N(C)C(N)=O)cc(C)c1CCS(=O)(=O)N1CCC2(CC1)N=C(C1CCC([Si](C)(C)C)CC1)NC2=O (stereo not drawn) [Compound 1137, 1-(3,5-Dimethyl-4-{2-[4-oxo-2-(4-trimethylsilanyl-cyclohexyl)-1,3,8-triaza-spiro[4.5]dec-1-ene-8-sulfonyl]-ethyl}-phenyl)-1-methyl-urea] | 82 |
| 77 | Cc1cc(N(C)C(N)=O)cc(C)c1CC[S@TB3](=O)(=O)N1CCC2(CC1)N=C(C1CC(C(F)(F)F)CC(C(F)(F)F)C1)NC2=O [Compound 1138, 1-(4-{2-[2-((1R,3R,5S)-3,5-bis-trifluoromethyl-cyclohexyl)-4-oxo-1,3,8-triaza-spiro[4.5]dec-1-ene-8-sulfonyl]-ethyl}-3,5-dimethyl-phenyl)-1-methyl-urea] | – |
| – | Cc1cc(N(C)C(N)=O)cc(C)c1CC[S@TB4](=O)(=O)N1CCC2(CC1)N=C(c1ccc([Si](C)(C)C)cc1)NC2=O [Compound 1139, 1-(3,5-dimethyl-4-{2-[4-oxo-2-(4-trimethylsilanyl-phenyl)-1,3,8-triaza-spiro[4.5]dec-1-ene-8-sulfonyl]-ethyl}-phenyl)-1-methyl-urea] | 86 |
| 55 | CCCCCCCCCCCCCC1=NC2(CCN([S@TB18](=O)(=O)CCc3c(C)cc(N(C)C(N)=O)cc3C)CC2)C(=O)N1 [Compound 1140, 1-{3,5-dimethyl-4-[2-(4-oxo-2-tridecyl-1,3,8-triaza-spiro[4.5]dec-1-ene-8-sulfonyl)-ethyl]-phenyl}-1-methyl-urea] | – |
| 83 | CCCCCCCCCCCC1=NC2(CCN([S@TB17](=O)(=O)CCc3c(C)cc(N(C)C(N)=O)cc3C)CC2)C(=O)N1 [Compound 1141, 1-{3,5-dimethyl-4-[2-(4-oxo-2-undecyl-1,3,8-triaza-spiro[4.5]dec-1-ene-8-sulfonyl)-ethyl]-phenyl}-1-methyl-urea] | – |
| 68 | CCCCCCCCC1=NC2(CCN([S@TB17](=O)(=O)CCc3c(C)cc(N(C)C(N)=O)cc3C)CC2)C(=O)N1 [Compound 1142, 1-{3,5-dimethyl-4-[2-(2-octyl-4-oxo-1,3,8-triaza-spiro[4.5]dec-1-ene-8-sulfonyl)-ethyl]-phenyl}-1-methyl-urea] | – |
| 78 | CCCCCC[C@@H]1CCC[C@H](C2=NC3(CCN(S(=O)(=O)CCc4c(C)cc(N(C)C(N)=O)cc4C)CC3)C(=O)N2)C1 [Compound 1143, 1-(4-{2-[2-((1S,3R)-3-Hexyl-cyclohexyl)-4-oxo-1,3,8-triaza-spiro[4.5]dec-1-ene-8-sulfonyl]-ethyl}-3,5-dimethyl-phenyl)-1-methyl-urea] | – |
| 124 | Cc1cc(N(C)C(N)=O)cc(C)c1CC[S@TB3](=O)(=O)N1CCC2(CC1)N=C(c1cccc(CCC(C)C)c1)NC2=O [Compound 1144, 1-[3,5-dimethyl-4-(2-{2-[3-(3-methyl-butyl)-phenyl]-4-oxo-1,3,8-triaza-spiro[4.5]dec-1-ene-8-sulfonyl}-ethyl)-phenyl]-1-methyl-urea] | – |
| 102 | CCCC[C@@H]1CCC[C@H](C2=NC3(CCN(S(=O)(=O)CCc4c(C)cc(N(C)C(N)=O)cc4C)CC3)C(=O)N2)C1 [Compound 1145, 1-(4-{2-[2-((1S,3R)-3-butyl-cyclohexyl)-4-oxo-1,3,8-triaza-spiro[4.5]dec-1-ene-8-sulfonyl]-ethyl}-3,5-dimethyl-phenyl)-1-methyl-urea] | – |
| 107 | Cc1cc(N(C)C(N)=O)cc(C)c1CCS(=O)(=O)N1CCC2(CC1)N=C([C@H]1CCC[C@@H](CCC(C)C)C1)NC2=O [Compound 1146, 1-[3,5-dimethyl-4-(2-{2-[(1S,3S)-3-(3-methyl-butyl)-cyclohexyl]-4-oxo-1,3,8-triaza-spiro[4.5]dec-1-ene-8-sulfonyl}-ethyl)-phenyl]-1-methyl-urea] | – |
| 112 | Cc1cc(N(C)C(N)=O)cc(C)c1CC[S@TB4](=O)(=O)N1CCC2(CC1)N=C(CCC(F)(F)CCCCCC(F)(F)F)NC2=O [Compound 1147, 1-(3,5-dimethyl-4-{2-[4-oxo-2-(3,3,9,9,9-pentafluoro-nonyl)-1,3,8-triaza-spiro[4.5]dec-1-ene-8-sulfonyl]-ethyl}-phenyl)-1-methyl-urea] | – |
| 98 | [2H]C([2H])([2H])C([2H])([2H])C1=CC[C@H](C2=NC3(CCN([S@TB18](=O)(=O)CCc4c(C)cc(N(C)C(N)=O)cc4C)CC3)C(=O)N2)CC1 [Compound 1149, 1-(4-{2-[2-(4-[1,1,2,2,2-^2H5]ethyl-cyclohex-3-enyl)-4-oxo-1,3,8-triaza-spiro[4.5]dec-1-ene-8-sulfonyl]-ethyl}-3,5-dimethyl-phenyl)-1-methyl-urea] | – |
| 107 | Cc1cc(N(C)C(N)=O)cc(C)c1CCS(=O)(=O)N1CCC2(CC1)N=C(c1ccc(Cl)c(C(F)(F)F)c1)NC2=O [Compound 1150, 1-(4-{2-[2-(4-Chloro-3-trifluoromethyl-phenyl)-4-oxo-1,3,8-triaza-spiro[4.5]dec-1-ene-8-sulfonyl]-ethyl}-3,5-dimethyl-phenyl)-1-methyl-urea] | – |
| 105 | Cc1cc(N(C)C(N)=O)cc(C)c1CCS(=O)(=O)N1CCC2(CC1)N=C(C(F)CCCCCCCC(F)(F)F)NC2=O (stereo not drawn) [Compound 1151, 1-(3,5-Dimethyl-4-{2-[4-oxo-2-(1,9,9,9-tetrafluoro-nonyl)-1,3,8-triaza-spiro[4.5]dec-1-ene-8-sulfonyl]-ethyl}-phenyl)-1-methyl-urea] | – |
| 0.8 | CCCc1ccc(-c2cccc(C3=NC4(CCN(S(=O)(=O)CCc5c(C)cc(N(C)C(N)=O)cc5C)CC4)C(=O)N3)c2)cc1 [Compound 1152, 1-(3,5-Dimethyl-4-{2-[4-oxo-2-(4′-propyl-biphenyl-3-yl)-1,3,8-triaza-spiro[4.5]dec-1-ene-8-sulfonyl]-ethyl}-phenyl)-1-methyl-urea] | – |
| 106 | Cc1cc(N(C)C(N)=O)cc(C)c1CC[S@TB4](=O)(=O)N1CCC2(CC1)N=C(CCCCCCCCCCCF)NC2=O [Compound 1153, 1-(4-{2-[2-(11-fluoro-undecyl)-4-oxo-1,3,8-triaza-spiro[4.5]dec-1-ene-8-sulfonyl]-ethyl}-3,5-dimethyl-phenyl)-1-methyl-urea] | – |
| 115 | CCSCCCCCCC1=NC2(CCN([S@TB18](=O)(=O)CCc3c(C)cc(N(C)C(N)=O)cc3C)CC2)C(=O)N1 [Compound 1154, 1-(4-{2-[2-(6-ethylsulfanyl-hexyl)-4-oxo-1,3,8-triaza-spiro[4.5]dec-1-ene-8-sulfonyl]-ethyl}-3,5-dimethyl-phenyl)-1-methyl-urea] | – |
